From ChEMBL document CHEMBL5500372, “Novel natural osthole-inspired amphiphiles as membrane targeting antibacterials against methicillin-resistant Staphylococcus aureus (MRSA)” (Eur J Med Chem, 2024)
≈ marks a conversion by molar mass, not a printed value.

Legend:
[1] = Selectivity index, ratio of HC50 for hemolytic activity in sheep erythrocyte assessed as hemolysis to MIC for antibacterial activity against Staphylococcus aureus ATCC 29213; format: toxicity; settings: sheep erythrocytes, read-out: Selectivity Index
[2] = tested on: Staphylococcus aureus; experiment: Antibacterial activity against methicillin-resistant Staphylococcus aureus clinical isolate 16 measured after 18 hrs by CLSI based broth microdilution method; format: functional
[3] = tested on: Staphylococcus aureus; experiment: Antibacterial activity against methicillin-resistant Staphylococcus aureus clinical isolate 21 measured after 18 hrs by CLSI based broth microdilution method; format: functional
[4] = tested on: Staphylococcus aureus; experiment: Antibacterial activity against methicillin-resistant Staphylococcus aureus clinical isolate 22 measured after 18 hrs by CLSI based broth microdilution method; format: functional
[5] = tested on: Staphylococcus aureus; experiment: Antibacterial activity against Staphylococcus aureus ATCC 29213 measured after 18 hrs by CLSI based broth microdilution method; format: functional
[6] = tested on: Staphylococcus aureus; experiment: Antibacterial activity against methicillin-resistant Staphylococcus aureus clinical isolate 23 measured after 18 hrs by CLSI based broth microdilution method; format: functional
[7] = Hemolytic activity in sheep erythrocyte assessed as hemolysis incubated for 1 hr by absorbance based analysis; format: toxicity, cell-based, Ovis aries; settings: sheep erythrocytes
[8] = tested on: Staphylococcus aureus; experiment: Antibacterial activity against methicillin-resistant Staphylococcus aureus clinical isolate 13 measured after 18 hrs by CLSI based broth microdilution method; format: functional
[9] = tested on: Staphylococcus aureus; experiment: Antibacterial activity against methicillin-resistant Staphylococcus aureus clinical isolate 12 measured after 18 hrs by CLSI based broth microdilution method; format: functional
[10] = tested on: Staphylococcus aureus; experiment: Antibacterial activity against methicillin-resistant Staphylococcus aureus clinical isolate 14 measured after 18 hrs by CLSI based broth microdilution method; format: functional
[11] = tested on: Staphylococcus aureus; experiment: Antibacterial activity against methicillin-resistant Staphylococcus aureus clinical isolate 20 measured after 18 hrs by CLSI based broth microdilution method; format: functional
[12] = tested on: Staphylococcus aureus; experiment: Antibacterial activity against methicillin-resistant Staphylococcus aureus clinical isolate 17 measured after 18 hrs by CLSI based broth microdilution method; format: functional
[13] = tested on: Escherichia coli; experiment: Antibacterial activity against Escherichia coli ATCC 25922 measured after 18 hrs by CLSI based broth microdilution method; format: functional
[14] = tested on: Staphylococcus aureus; experiment: Antibacterial activity against methicillin-resistant Staphylococcus aureus clinical isolate 11 measured after 18 hrs by CLSI based broth microdilution method; format: functional

| SMILES | selectivity ratio [1] | MIC [2] [µg/mL] | MIC [3] [µg/mL] | MIC [4] [µg/mL] | MIC [5] [µg/mL] | MIC [6] [µg/mL] | HC50 at 1 h [7] [µg/mL] | MIC [8] [µg/mL] | MIC [9] [µg/mL] | MIC [10] [µg/mL] | MIC [11] [µg/mL] | MIC [12] [µg/mL] | MIC [13] [µg/mL] | MIC [14] [µg/mL] |
| --- | --- | --- | --- | --- | --- | --- | --- | --- | --- | --- | --- | --- | --- | --- |
| CC(C)=CCc1c(OCCC[N+](C)(C)CC(=O)N(CC(C)C)CC(C)C)ccc2ccc(=O)oc12.[Br-] | > 320 | 4 | 4 | 4 | 4 | 4 | > 1280 | 4 | 8 | 4 | 4 | 4 | 128 | 4 |
| CCCCCNC(=O)C[N+](C)(C)CCCCOc1ccc2ccc(=O)oc2c1CC=C(C)C.[Br-] | > 160 | 8 | 8 | 8 | 8 | 8 | > 1280 | 16 | 16 | 8 | 8 | 8 | 64 | 8 |
| CCNC(=O)C[N+](C)(C)CCCOc1ccc2ccc(=O)oc2c1CC=C(C)C.[Br-] | > 5 | 128 | 128 | 128 | 128 | 128 | > 640 | 128 | 128 | 128 | 128 | 128 | > 128 | 128 |
| COc1ccc2ccc(=O)oc2c1CC=C(C)C [OSTHOLE] | – | 64 (≈ 262 µM) | > 64 | 64 (≈ 262 µM) | > 64 | > 64 | > 80 | > 64 | 64 (≈ 262 µM) | 64 (≈ 262 µM) | 64 (≈ 262 µM) | 64 (≈ 262 µM) | > 64 | > 64 |
| CCN(CC)C(=O)C[N+](C)(C)CCCOc1ccc2ccc(=O)oc2c1CC=C(C)C.[Br-] | > 10 | 128 | 128 | 128 | 128 | 128 | > 1280 | 128 | 128 | 128 | 128 | 128 | 128 | 128 |
| CC(C)=CCc1c(OCCCC[N+](C)(C)CC(=O)N(CC(C)C)CC(C)C)ccc2ccc(=O)oc12.[Br-] | > 320 | 2 | 2 | 4 | 4 | 2 | > 1280 | 4 | 4 | 2 | 2 | 1 | 128 | 2 |
| CC(C)=CCc1c(OCCC[N+](C)(C)CC(=O)N(C(C)C)C(C)C)ccc2ccc(=O)oc12.[Br-] | > 40 | 16 | 16 | 16 | 16 | 16 | > 640 | 16 | 16 | 16 | 32 | 16 | 128 | 16 |
| CCN(CC)C(=O)C[N+](C)(C)CCCCCOc1ccc2ccc(=O)oc2c1CC=C(C)C.[Br-] | 40 | 32 | 32 | 32 | 32 | 32 | > 1280 | 32 | 64 | 32 | 32 | 32 | 128 | 32 |
| CCCN(CCC)C(=O)C[N+](C)(C)CCCCOc1ccc2ccc(=O)oc2c1CC=C(C)C.[Br-] | > 80 | 16 | 16 | 16 | 16 | 16 | > 1280 | 32 | 32 | 16 | 32 | 16 | > 128 | 16 |
| CCNC(=O)C[N+](C)(C)CCCCOc1ccc2ccc(=O)oc2c1CC=C(C)C.[Br-] | > 10 | 128 | 128 | 128 | 128 | 128 | > 1280 | 128 | 128 | 128 | 64 | 128 | 128 | 128 |
| CCCCNC(=O)C[N+](C)(C)CCCCOc1ccc2ccc(=O)oc2c1CC=C(C)C.[Br-] | > 40 | 16 | 16 | 16 | 32 | 16 | > 1280 | 32 | 32 | 16 | 16 | 16 | 128 | 16 |
| CCCCN(CCCC)C(=O)C[N+](C)(C)CCCCOc1ccc2ccc(=O)oc2c1CC=C(C)C.[Br-] | > 640 | 2 | 2 | 2 | 2 | 4 | > 1280 | 4 | 8 | 4 | 2 | 4 | 64 | 4 |
| CC(C)=CCc1c(OCCCCC[N+](C)(C)CC(=O)N(CC(C)C)CC(C)C)ccc2ccc(=O)oc12.[Br-] | 480 | 1 | 1 | 1 | 2 | 1 | 960 | 2 | 2 | 1 | 1 | 1 | 128 | 1 |
| CCCNC(=O)C[N+](C)(C)CCCOc1ccc2ccc(=O)oc2c1CC=C(C)C.[Br-] | > 10 | 128 | 128 | 128 | 128 | 128 | > 1280 | 128 | 64 | 128 | 128 | 128 | 128 | 128 |
| CCCCN(CCCC)C(=O)C[N+](C)(C)CCCOc1ccc2ccc(=O)oc2c1CC=C(C)C.[Br-] | 272 | 4 | 4 | 4 | 4 | 4 | 1090 | 4 | 8 | 4 | 4 | 8 | 128 | 4 |
| CCCCCNC(=O)C[N+](C)(C)CCCCCOc1ccc2ccc(=O)oc2c1CC=C(C)C.[Br-] | > 320 | 2 | 2 | 2 | 4 | 2 | > 1280 | 4 | 4 | 2 | 64 | 4 | 64 | 4 |
| CC(C)=CCc1c(OCCCC[N+](C)(C)CC(=O)N(C(C)C)C(C)C)ccc2ccc(=O)oc12.[Br-] | 79.2 | 16 | 16 | 16 | 16 | 16 | 1270 | 32 | 32 | 16 | 16 | 16 | 128 | 16 |
| C[C@@H](O)[C@H]1C(=O)N2C(C(=O)O)=C(S[C@@H]3CN[C@H](C(=O)N(C)C)C3)[C@H](C)[C@H]12 [MEROPENEM] | – | – | – | – | – | – | – | – | – | – | – | – | 0.062 (≈ 0.162 µM) | – |
| CCCCN(CCCC)C(=O)C[N+](C)(C)CCCCCOc1ccc2ccc(=O)oc2c1CC=C(C)C.[Br-] | 989 | 1 | 1 | 1 | 1 | 1 | 989 | 2 | 2 | 1 | 1 | 1 | 128 | 1 |
| CCCNC(=O)C[N+](C)(C)CCCCCOc1ccc2ccc(=O)oc2c1CC=C(C)C.[Br-] | 35.8 | 16 | 32 | 32 | 32 | 32 | 1140 | 32 | 32 | 16 | 32 | 32 | 128 | 32 |
| CCCCNC(=O)C[N+](C)(C)CCCOc1ccc2ccc(=O)oc2c1CC=C(C)C.[Br-] | > 40 | 32 | 32 | 32 | 32 | 32 | > 1280 | 32 | 64 | 32 | 64 | 32 | 128 | 64 |
